According to PubChem BioAssay AID1963840 (Molecular Pharmacology Branch, DTP, NCI, 2024):

Tested on: 695427-040-R-J1-PDC complex spheroid viability
Assay: Anticancer human tumor 695427-040-R-J1-PDC patient-derived colon adenocarcinoma cell line growth inhibition [POLQ]
Settings: for IC50: curve of first compound; for viability, T/C: stronger effect = lower value
Description: Multicellular complex tumor spheroid response to Polymerase (POL) inhibitors (novobiocin, ART-558, RP6685) in combination with a variety of drugs and investigational agents in selected tumor cell lines
The POL inhibitors (novobiocin, ART-558, and RP6685) were evaluated both individually and in combination with standard of care and investigational anticancer small molecules within a complex spheroid model of solid tumors. . Complex spheroids include a stromal component modeled by human endothelial cells (HUVEC) and fibroblasts modeled by human mesenchymal stem cells (MSCs). The concentration ranges selected for each drug and investigational agent were based upon clinically achievable concentrations if the clinical Cmax of the agent was known.
Compounds. The drugs and investigational agents: novobiocin (NSC847541), ART-558 (NSC835418), RP-6685 (NSC848927), peposertib (NSC802822), ceralasertib (NSC780249), elimusertib (NSC800525), camonsertib (NSC841442), AZD-1390 (NSC803789), olaparib (NSC753686), talazoparib (NSC767125), rucaparib (NSC756644), sotorasib (NSC818433), MRTX-1133 (NSC836407), SN-38 (NSC673596), topotecan (NSC609699), epotoside (NSC141540), doxorubicin (NSC123127), gemcitabine (NSC613327), 5-fluorouracil (NSC19893), paclitaxel (NSC125973), vemurafenib (NSC761431), MSA-2 (NSC828583), SN-011 (NSC837082), adavosertib (NSC754352), prexasertib (NSC758257), carboplatin (NSC241240) and oxaliplatin (NSC266046), were obtained from the National Cancer Institute (NCI) Developmental Therapeutics Program Chemical Repository (21). The FDA-approved anticancer drug set is available from the Developmental Therapeutics Program at https://dtp.cancer.gov/organization/dscb/obtaining/. […] The stock solutions were prepared in dimethyl sulfoxide (DMSO, Sigma-Aldrich, St. Louis, MO, cat. D2650), except for the platinum compounds which were prepared in saline (Quality Biological, Gaithersburg, MD, cat. 114-055-101), at 800-fold the tested concentration and stored at -70 degrees C prior to their use. All drugs and investigational agents were tested over a range starting from a high concentration at or near the clinical Cmax and decreasing in half-log increments. If the clinical Cmax for an agent had not been determined, the highest concentration tested was 10 microM, except for SN-38, which was tested at a high concentration of 1 microM.
Cell Culture. All cells were maintained in an incubator at 37 degrees C and 5% CO2 with 95% humidity. The PDC lines were cultured according to standard operating procedures established by the NCI PDMR (https://pdmr.cancer.gov). Table 3 of the manuscript, lists the cell lines along with the number of the three cell types plated to form the mct-spheroids and media for tumor cell growth. After thawing, all PDC lines, except 997537-175-T-J1-PDC and 415267-285-R-J2-PDC, were cultured in Matrigel-coated flasks prepared with a working solution of 1X Ham's F-12 nutrient mix, without supplementation (Thermo Fisher Scientific, cat. 11765054), 100 U/mL penicillin-streptomycin (Thermo Fisher Scientific, cat. 15140122), and 2.5% Matrigel (Corning Inc., Corning, NY, cat. 354248) for the first three passages. The two PDC lines 997537-175-T-J1-PDC and 415267-285-R-J2-PDC were cultured on uncoated flasks. The 857933-349-R-J2-PDC line was cultured in 6C/Colon 1B media containing advanced DMEM/F-12 (Thermo Fisher Scientific, cat. 12634028), 10 mM HEPES (Thermo Fisher Scientific, cat. 15630080), 1X GlutaMAX supplement (Thermo Fisher Scientific, cat. 35050061), 0.1 mg/mL primocin (InvivoGen, San Diego, CA, cat. ant-pm-2), 10% defined fetal bovine serum, heat inactivated (HyClone Laboratories Inc., Logan, UT, cat. SH30070.03HI), 50% L-WRN conditioned media (ATCC, cat. CRL-3276), 1.25 mM N-Acetyl-L-cysteine (Sigma-Aldrich, cat. A9165), 10 mM nicotinamide (Sigma-Aldrich, cat. N0636), 1X B-27 supplement (Thermo Fisher Scientific, cat. 17504044), 1X N-2 supplement (Thermo Fisher Scientific, cat. […]

[1] = second compound 0.0316 µM, first compound 0.0316 µM
[2] = second compound 0.0316 µM, first compound 0.1 µM
[3] = second compound 0.0316 µM, first compound 0.316 µM
[4] = second compound 0.0316 µM, first compound 1 µM
[5] = second compound 0.0316 µM, first compound 3.16 µM
[6] = second compound 0.0316 µM, first compound 10 µM
[7] = second compound 0.1 µM, first compound 0.0316 µM
[8] = second compound 0.1 µM, first compound 0.1 µM
[9] = second compound 0.1 µM, first compound 0.316 µM
[10] = second compound 0.1 µM, first compound 1 µM
[11] = second compound 0.1 µM, first compound 3.16 µM
[12] = second compound 0.1 µM, first compound 10 µM
[13] = second compound 0.316 µM, first compound 0.0316 µM
[14] = second compound 0.316 µM, first compound 0.1 µM
[15] = second compound 0.316 µM, first compound 0.316 µM
[16] = second compound 0.316 µM, first compound 1 µM
[17] = second compound 0.316 µM, first compound 3.16 µM
[18] = second compound 0.316 µM, first compound 10 µM
[19] = second compound 1 µM, first compound 0.0316 µM
[20] = second compound 1 µM, first compound 0.1 µM
[21] = second compound 1 µM, first compound 0.316 µM
[22] = second compound 1 µM, first compound 1 µM
[23] = second compound 1 µM, first compound 3.16 µM
[24] = second compound 1 µM, first compound 10 µM
[25] = second compound 3.16 µM, first compound 0.0316 µM
[26] = second compound 3.16 µM, first compound 0.1 µM
[27] = second compound 3.16 µM, first compound 0.316 µM
[28] = second compound 3.16 µM, first compound 1 µM
[29] = second compound 3.16 µM, first compound 3.16 µM
[30] = second compound 3.16 µM, first compound 10 µM
[31] = second compound 10 µM, first compound 0.0316 µM
[32] = second compound 10 µM, first compound 0.1 µM
[33] = second compound 10 µM, first compound 0.316 µM
[34] = second compound 10 µM, first compound 1 µM
[35] = second compound 10 µM, first compound 3.16 µM
[36] = second compound 10 µM, first compound 10 µM
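Also: spheroids exposed to compounds for seven days.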
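For viability, T/C in this document: 100% = DMSO vehicle control viability.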

COc1cc2cc(C(=O)CCC(=O)O)sc2cc1OC + Nc1ccc(C#CCN(C(=O)Cc2ncc(C(F)(F)F)cc2C(F)(F)F)c2ccc(F)cc2)nn1
IC50 (second compound 0.0316 µM): > 10 µM
IC50 (second compound 0.1 µM): > 10 µM
IC50 (second compound 0.316 µM): > 10 µM
IC50 (second compound 1 µM): > 10 µM
IC50 (second compound 3.16 µM): > 10 µM
IC50 (second compound 10 µM): > 10 µM
viability, T/C [1]: 111%
viability, T/C [2]: 92%
viability, T/C [3]: 103%
viability, T/C [4]: 115%
viability, T/C [5]: 105%
viability, T/C [6]: 92.1%
viability, T/C [7]: 109%
viability, T/C [8]: 118%
viability, T/C [9]: 103%
viability, T/C [10]: 102%
viability, T/C [11]: 115%
viability, T/C [12]: 96.6%
viability, T/C [13]: 111%
viability, T/C [14]: 109%
viability, T/C [15]: 94.1%
viability, T/C [16]: 109%
viability, T/C [17]: 105%
viability, T/C [18]: 98.9%
viability, T/C [19]: 109%
viability, T/C [20]: 100%
viability, T/C [21]: 104%
viability, T/C [22]: 108%
viability, T/C [23]: 120%
viability, T/C [24]: 89.7%
viability, T/C [25]: 111%
viability, T/C [26]: 101%
viability, T/C [27]: 102%
viability, T/C [28]: 99.1%
viability, T/C [29]: 106%
viability, T/C [30]: 86.4%
viability, T/C [31]: 105%
viability, T/C [32]: 105%
viability, T/C [33]: 98.7%
viability, T/C [34]: 87.4%
viability, T/C [35]: 102%
viability, T/C [36]: 102%

CC1COCCN1c1cc(-c2ccnn2C)c2ccnc(-c3ccn[nH]3)c2n1 (stereo unspecified) + Nc1ccc(C#CCN(C(=O)Cc2ncc(C(F)(F)F)cc2C(F)(F)F)c2ccc(F)cc2)nn1
IC50 (second compound 0.0316 µM): > 10 µM
IC50 (second compound 0.1 µM): > 10 µM
IC50 (second compound 0.316 µM): > 10 µM
IC50 (second compound 1 µM): > 10 µM
IC50 (second compound 3.16 µM): > 10 µM
IC50 (second compound 10 µM): > 10 µM
viability, T/C [1]: 92.9%
viability, T/C [2]: 91.8%
viability, T/C [3]: 72.9%
viability, T/C [4]: 66.8%
viability, T/C [5]: 61.6%
viability, T/C [6]: 56.3%
viability, T/C [7]: 117%
viability, T/C [8]: 89.1%
viability, T/C [9]: 74.3%
viability, T/C [10]: 66.3%
viability, T/C [11]: 61.7%
viability, T/C [12]: 56.2%
viability, T/C [13]: 105%
viability, T/C [14]: 92.7%
viability, T/C [15]: 71%
viability, T/C [16]: 62.5%
viability, T/C [17]: 65%
viability, T/C [18]: 56.9%
viability, T/C [19]: 108%
viability, T/C [20]: 83.5%
viability, T/C [21]: 73.6%
viability, T/C [22]: 65.6%
viability, T/C [23]: 59.7%
viability, T/C [24]: 51.4%
viability, T/C [25]: 102%
viability, T/C [26]: 84.3%
viability, T/C [27]: 70.3%
viability, T/C [28]: 61.1%
viability, T/C [29]: 61.8%
viability, T/C [30]: 52.2%
viability, T/C [31]: 92%
viability, T/C [32]: 80.3%
viability, T/C [33]: 64.2%
viability, T/C [34]: 57.8%
viability, T/C [35]: 58.5%
viability, T/C [36]: 58%

C=CC(=O)N1CCN(c2nc(=O)n(-c3c(C)ccnc3C(C)C)c3nc(-c4c(O)cccc4F)c(F)cc23)C(C)C1 (stereo unspecified) + Cc1cccc(N(C)C(=O)C2C(O)CCN2c2nc(C)cc(C(F)(F)F)c2C#N)c1
IC50 (second compound 0.0316 µM): > 10 µM
IC50 (second compound 0.1 µM): > 10 µM
IC50 (second compound 0.316 µM): > 10 µM
IC50 (second compound 1 µM): > 10 µM
IC50 (second compound 3.16 µM): > 10 µM
IC50 (second compound 10 µM): > 10 µM
viability, T/C [1]: 98.8%
viability, T/C [2]: 93.9%
viability, T/C [3]: 101%
viability, T/C [4]: 105%
viability, T/C [5]: 107%
viability, T/C [6]: 110%
viability, T/C [7]: 96.2%
viability, T/C [8]: 92.4%
viability, T/C [9]: 101%
viability, T/C [10]: 108%
viability, T/C [11]: 99.9%
viability, T/C [12]: 104%
viability, T/C [13]: 103%
viability, T/C [14]: 103%
viability, T/C [15]: 101%
viability, T/C [16]: 104%
viability, T/C [17]: 101%
viability, T/C [18]: 106%
viability, T/C [19]: 98.1%
viability, T/C [20]: 98.5%
viability, T/C [21]: 97.8%
viability, T/C [22]: 99.4%
viability, T/C [23]: 97.5%
viability, T/C [24]: 102%
viability, T/C [25]: 97.8%
viability, T/C [26]: 84.5%
viability, T/C [27]: 97.9%
viability, T/C [28]: 93.4%
viability, T/C [29]: 103%
viability, T/C [30]: 107%
viability, T/C [31]: 87.8%
viability, T/C [32]: 91.8%
viability, T/C [33]: 87.5%
viability, T/C [34]: 101%
viability, T/C [35]: 102%
viability, T/C [36]: 105%
